Source: patent publication US8933224B2, “Triazine derivatives” (Pfizer Inc., priority 2013, dated 2015)

Key:
[1] = biological target: rat PDE10 enzyme (Rattus norvegicus (Rat), UniProt Q9QYJ6); experiment: PDE10 scintillation proximity assay (SPA), inhibition of rat PDE10 enzyme activity; assay type: biochemical; conditions: geometric mean of 2-4 determinations unless otherwise indicated (b: ≧5 determinations; c: single determination)
Outline: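 SPA with fixed recombinant PDE10 (Sf21-expressed, Ni-NTA and Mono Q purified) converting ~20% of 20 nM ³H-cAMP in 50 mM TRIS pH 7.5, 1.3 mM MgCl2, 0.01% Brij, across an inhibitor range.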

[2] = biological target: human recombinant PDE10 enzyme (PDE10A) (Homo sapiens, UniProt Q9Y233); experiment: PDE10 scintillation proximity assay (SPA), inhibition of human recombinant PDE10 enzyme activity; assay type: biochemical; conditions: geometric mean of 2-4 determinations unless otherwise indicated (b: ≧5 determinations; c: single determination)
Procedure: PDE10 activity was measured using a scintillation assay (SPA-based method) similar to that previously described by Seeger, T. F. et al., Brain Research 985 (2003) 113-126. The compounds' relative activity as PDE10 inhibitors was investigated by assaying a fixed amount of enzyme in the presence of the test compound and low substrate concentration (cAMP) such that an IC50 could be determined. […] The assay is performed in a 384-well format with 50 μL assay buffer (50 mM TRIS pH 7.5; 1.3 mM MgCl2; 0.01% Brij) containing enough PDE10 to convert ˜20% of 20 nM ^3H-cAMP, and a range of inhibitors. Reactions are incubated for 30 minutes at 25° C. The addition of 20 μL of 8 mg/ml yttrium silicate SPA beads (PerkinElmer) stops the reaction. The plates are sealed (TopSeal, PerkinElmer) and the beads are allowed to settle for 8 hrs, after which they are read on the Trilux Microbeta overnight. ^1Rat enzyme preparation:^2Human enzyme preparation:
Human PDE10A coding sequence (amino acids 21 to 797 from the sequence with accession number NP_001124162.1) was synthesized using codon optimization for insect expression and cloned into the baculovirus expression vector pFastBac (Invitrogen) engineered to include a N-terminal His6 affinity tag to aid in purification as described in Seeger, T. F. et al., Brain Research 985 (2003) 113-126. The recombinant Bacmid was isolated and used to transfect sf9 insect cells to generate a viral stock. To generate cell paste for purification, sf21 cells were infected with the virus stock and cells were harvested 72 hours after infection as described in Seeger, T. F. et al., Brain Research 985 (2003) 113-126. Insect cell paste was lysed and after centrifugation, the supernatant was chromatographed on Ni-NTA agarose (Qiagen) as described in Seeger, T. F. et al., Brain Research 985 (2003) 113-126. Ni-NTA agarose eluting fractions containing PDE10A were chromatographed on Superdex 200 (GE Healthcare Life Sciences) in 50 mM Tris HCl pH 7.5, 150 mM NaCl, 1 mM EDTA, 10% glycerol, 2 mM TCEP, 1.5 mM benzamidine, EDTA-free protease inhibitors (Roche), and 5 μM E-64.

Sequence of rat PDE10 enzyme (Q9QYJ6 24-794): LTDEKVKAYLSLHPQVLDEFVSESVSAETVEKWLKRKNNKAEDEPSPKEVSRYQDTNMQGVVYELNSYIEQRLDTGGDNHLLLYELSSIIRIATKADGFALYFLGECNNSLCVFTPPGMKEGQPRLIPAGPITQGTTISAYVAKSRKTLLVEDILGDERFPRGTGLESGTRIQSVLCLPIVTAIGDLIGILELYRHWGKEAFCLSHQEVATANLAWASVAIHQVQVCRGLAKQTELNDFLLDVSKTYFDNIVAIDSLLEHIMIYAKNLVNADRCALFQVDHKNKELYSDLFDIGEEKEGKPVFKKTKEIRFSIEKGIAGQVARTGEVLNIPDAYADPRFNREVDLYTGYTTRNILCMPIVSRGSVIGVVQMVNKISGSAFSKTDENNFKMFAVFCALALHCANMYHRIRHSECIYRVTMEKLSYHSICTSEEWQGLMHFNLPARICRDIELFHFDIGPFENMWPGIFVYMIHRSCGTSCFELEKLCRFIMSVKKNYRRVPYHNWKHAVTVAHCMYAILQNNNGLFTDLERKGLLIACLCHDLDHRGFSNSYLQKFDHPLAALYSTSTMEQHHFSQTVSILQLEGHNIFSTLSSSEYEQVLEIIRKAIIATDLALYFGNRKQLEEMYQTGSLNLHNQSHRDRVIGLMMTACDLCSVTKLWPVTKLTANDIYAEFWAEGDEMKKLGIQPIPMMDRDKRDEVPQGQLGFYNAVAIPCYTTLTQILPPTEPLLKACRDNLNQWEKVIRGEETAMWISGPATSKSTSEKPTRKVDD

Compound	IC50 [1] [nM]	IC50 [2] [nM]
Cc1nc([C@@H]2CCOC2)c2c(N3CCc4cnn(C)c4C3)ncnn12 [Example 8, 7-Methyl-4-(1-methyl-1,4,5,7-tetrahydro-6H-pyrazolo[3,4-c]pyridin-6-yl)-5-[(3S)-tetrahydrofuran-3-yl]imidazo[5,1-f][1,2,4]triazine]	2.36	3.41
Cc1nc([C@@H]2CCOC2)c2c(N3CCc4nc(C5CC5)oc4C3)ncnn12 [Example 9, 4-(2-Cyclopropyl-6,7-dihydro[1,3]oxazolo[5,4-c]pyridin-5(4H)-yl)-7-methyl-5-[(3S)-tetrahydrofuran-3-yl]imidazo[5,1-f][1,2,4]triazine]	0.892	1.14
Cc1nc([C@@H]2CCOC2)c2c(N3CCc4nn(C5CC5)cc4C3)ncnn12 [Example 11, 4-(2-Cyclopropyl-2,4,6,7-tetrahydro-5H-pyrazolo[4,3-c]pyridin-5-yl)-7-methyl-5-[(3S)-tetrahydrofuran-3-yl]imidazo[5,1-f][1,2,4]triazine]	0.174	0.265
Cc1nc([C@@H]2CCOC2)c2c(N3CCc4c(c(C5CC5)nn4C)C3)ncnn12 [Example 12, 4-(3-Cyclopropyl-1-methyl-1,4,6,7-tetrahydro-5H-pyrazolo[4,3-c]pyridin-5-yl)-7-methyl-5-[(3S)-tetrahydrofuran-3-yl]imidazo[5,1-f][1,2,4]triazine]	0.194	0.257
CCc1nn(C)c2c1CN(c1ncnn3c(C)nc([C@@H]4CCOC4)c13)CC2 [Example 18, 4-(3-ethyl-1-methyl-1,4,6,7-tetrahydro-5H-pyrazolo[4,3-c]pyridin-5-yl)-7-methyl-5-[(3S)-tetrahydrofuran-3-yl]imidazo[5,1-f][1,2,4]triazine]	0.147	0.486
COc1ccc2c(n1)CN(c1ncnn3c(C)nc([C@@H]4CCOC4)c13)CC2 [Example 19, 2-methoxy-7-{7-methyl-5-[(3S)-tetrahydrofuran-3-yl]imidazo[5,1-f][1,2,4]triazin-4-yl}-5,6,7,8-tetrahydro-1,7-naphthyridine]	2.04	2.75
Cc1nc(C2CCOCC2)c2c(N3CCc4c(c(C(C)C)nn4C)C3)ncnn12 [Example 21, 4-(3-isopropyl-1-methyl-1,4,6,7-tetrahydro-5H-pyrazolo[4,3-c]pyridin-5-yl)-7-methyl-5-(tetrahydro-2H-pyran-4-yl)imidazo[5,1-f][1,2,4]triazine]	0.51	0.876
Cc1nc2c(s1)CN(c1ncnn3c(C)nc([C@H]4CCOC4)c13)CC2 [Example 23, 7-methyl-4-(2-methyl-6,7-dihydro[1,3]thiazolo[5,4-c]pyridin-5(4H)-yl)-5-[(3R)-tetrahydrofuran-3-yl]imidazo[5,1-f][1,2,4]triazine]	< 5.55	2.53
COc1cnc2c(c1)CN(c1ncnn3c(C)nc(-c4ccccc4F)c13)CC2 [Example 25, 6-[5-(2-fluorophenyl)-7-methylimidazo[5,1-f][1,2,4]triazin-4-yl]-3-methoxy-5,6,7,8-tetrahydro-1,6-naphthyridine]	1.12	1.41
COc1ccc2c(n1)CCN(c1ncnn3c(C)nc([C@@H]4CCOC4)c13)C2 [Example 27, 2-methoxy-6-{7-methyl-5-[(3S)-tetrahydrofuran-3-yl]imidazo[5,1-f][1,2,4]triazin-4-yl}-5,6,7,8-tetrahydro-1,6-naphthyridine]	0.617	0.891
COc1nccc2c1CN(c1ncnn3c(C)nc([C@@H]4CCOC4)c13)CC2 [Example 28, 8-methoxy-2-{7-methyl-5-[(3S)-tetrahydrofuran-3-yl]imidazo[5,1-f][1,2,4]triazin-4-yl}-1,2,3,4-tetrahydro-2,7-naphthyridine]	0.236	0.582

The next lines start with the values.

IC50 [1] [nM]	IC50 [2] [nM]	Compound
0.307	0.384	COc1cnc2c(c1)CN(c1ncnn3c(C)nc([C@@H]4CCOC4)c13)CC2 [Example 29, 3-methoxy-6-{7-methyl-5-[(3S)-tetrahydrofuran-3-yl]imidazo[5,1-f][1,2,4]triazin-4-yl}-5,6,7,8-tetrahydro-1,6-naphthyridine]
0.123	0.275	CCOc1nc(C)nc2c1CN(c1ncnn3c(C)nc([C@@H]4CCOC4)c13)CC2 [Example 35, 4-ethoxy-2-methyl-6-{7-methyl-5-[(3S)-tetrahydrofuran-3-yl]imidazo[5,1-f][1,2,4]triazin-4-yl}-5,6,7,8-tetrahydropyrido[4,3-d]pyrimidine]
1.78	2.92	Cc1nc(C)c2c(n1)CCN(c1ncnn3c(C)nc([C@@H]4CCOC4)c13)C2 [Example 38, 2,4-dimethyl-6-{7-methyl-5-[(3S)-tetrahydrofuran-3-yl]imidazo[5,1-f][1,2,4]triazin-4-yl}-5,6,7,8-tetrahydropyrido[4,3-d]pyrimidine]
0.442	0.98	Cc1nc(C2CC2)nc2c1CN(c1ncnn3c(C)nc(-c4ccccc4F)c13)CC2 [Example 40, 2-cyclopropyl-6-[5-(2-fluorophenyl)-7-methylimidazo[5,1-f][1,2,4]triazin-4-yl]-4-methyl-5,6,7,8-tetrahydropyrido[4,3-d]pyrimidine]
0.102	0.11	Cc1nc([C@@H]2CCOC2)c2c(N3CCc4nn(C)c(C5CC5)c4C3)ncnn12 [Example 44, 4-(3-cyclopropyl-2-methyl-2,4,6,7-tetrahydro-5H-pyrazolo[4,3-c]pyridin-5-yl)-7-methyl-5-[(3S)-tetrahydrofuran-3-yl]imidazo[5,1-f][1,2,4]triazine]
0.758	1.42	Cc1nc([C@@H]2CCOC2)c2c(N3CCc4ncccc4C3)ncnn12 [Example 47, 6-{7-methyl-5-[(3S)-tetrahydrofuran-3-yl]imidazo[5,1-f][1,2,4]triazin-4-yl}-5,6,7,8-tetrahydro-1,6-naphthyridine]
2.25	3.27	Cc1nc([C@H]2CCOC2)c2c(N3CCn4ncc(C(F)(F)F)c4C3)ncnn12 [Example 50, 7-methyl-5-[(3R)-tetrahydrofuran-3-yl]-4-[3-(trifluoromethyl)-6,7-dihydropyrazolo[1,5-a]pyrazin-5(4H)-yl]imidazo[5,1-f][1,2,4]triazine]
0.364	13.8	CCc1c2c(nn1C)CCN(c1ncnn3c(C)nc([C@@H]4CCOC4)c13)C2 [Example 57, 4-(3-ethyl-2-methyl-2,4,6,7-tetrahydro-5H-pyrazolo[4,3-c]pyridin-5-yl)-7-methyl-5-[(3S)-tetrahydrofuran-3-yl]imidazo[5,1-f][1,2,4]triazine]
< 1.16	1.12	COc1ccc2c(c1)CCN(c1ncnn3c(C)nc([C@@H]4CCOC4)c13)C2 [Example 58, 6-methoxy-2-{7-methyl-5-[(3S)-tetrahydrofuran-3-yl]imidazo[5,1-f][1,2,4]triazin-4-yl}-1,2,3,4-tetrahydroisoquinoline]
1.52	1.95	COc1cc2c(cn1)CN(c1ncnn3c(C)nc([C@@H]4CCOC4)c13)CC2 [Example 70, 6-methoxy-2-{7-methyl-5-[(3S)-tetrahydrofuran-3-yl]imidazo[5,1-f][1,2,4]triazin-4-yl}-1,2,3,4-tetrahydro-2,7-naphthyridine]
